Entries after “also recorded” stand apart in the source; their conditions may differ. Non-standard residues stand in square brackets, D forms with d. Residues, ends and D or L forms follow the SMILES beside them. Nle = CCCC[C@H](N)C(=O)O
Columns and labels:
RMA cells = test: Class I MHC assembly in RMA cells; assay type: cell-based
Procedure: Class I MHC molecules are peptide-binding receptors composed of a heavy and a light chain. Peptide binding to these molecules is essential for the stable association of the heavy and light chains. […] To test the effect of MG 101 on class I assembly, RMA cells were incubated with and without MG 101 (100 μM) for 1 hr at 37° C., electroporated with and without MG 101 (100 μM) as described in Example 7, and incubated with and without MG 101 (100 μM) for 3 hrs at 37° C. Over the last 30 min of incubation the cells were pulse labeled with ^35 S-methionine and were then washed and detergent lysates were prepared. Lysates were divided and class I binding peptides were added to one group. Class I molecules were immunoprecipitated with a mAb, Y3 (Townsend et al., Cell 62:285-295 (1990)), that only reacts with assembled class I heterodimers and analyzed as previously described ([…] et al., Nature 363:552-554 (1993)).

human cell line RAJI-K^b = test: MHC-I antigen presentation in human cells; assay type: cell-based; conditions: FIG. 8
Procedure: Antigen-presenting cells (APCs)--mouse B lymphoblastoid cell line (LB27.4)--were washed free of serum and loaded with an ovalbumin peptide (residues 257-263), which corresponds to the sequence these cells naturally generate and present. The APCs were incubated 1 hr at 37° C., electroporated with antigen, incubated 10 min on ice and washed. The antigen loaded cells were incubated 2 hrs at 37° C., fixed with paraformaldehyde, and washed. MG 101 at the concentrations indicated in FIG. 5 was present in all steps prior to fixation. APCs were assayed for antigen presentation as described in Rock et al., J. Immunol. 145:804-811 (1990) and Carbone et al., J. Exp Med. 171:377-387 (1990). […] In the left panel, APCs were treated with (open circles) or without (closed circles) MG 101 and electroporated with ovalbumin. In the right panel, APCs were treated with (open circles) or without (closed circles) MG 101 and electroporated with ovalbumin peptide. Example 7 was repeated except that the human cell line RAJI-K^b was used.

CCCC[C@@H](C=O)NC(=O)[C@H](CC(C)C)NC(=O)[C@H](CC(C)C)NC(C)=O [MG 101, Ac-Leu-Leu-Nle-H] (Ac-Leu-Leu-[Nle]-aldehyde)
Assembly of class I heterodimers (RMA cells; 100 μM MG 101, FIG. 7): markedly reduced
Class I complex formation from introduced antigenic peptide (RMA cells; 100 μM MG 101, FIG. 7 lane 4): fails to inhibit complex formation from introduced antigenic peptide
Appearance of MHC-I molecules on the cell surface (RMA cells; FIG. 7): specifically blocks the movement of functional MHC-I complexes to the cell surface; also recorded: blocks the appearance of MHC-I molecules on the cell surface
Level of the individual class I subunits (RMA cells; control experiments): does not affect the level of the individual subunits
Presentation of antigen from ovalbumin in human cells (human cell line RAJI-K^b): prevents antigen presentation in human cells; also recorded: inhibits presentation of antigen from ovalbumin in human cells

From patent US5693617A, “Inhibitors of the 26s proteolytic complex and the 20s proteasome contained therein” (ProScript, Inc., priority 1995, dated 1997)
